We go through 59 compounds from patent US8877759B2, “Aminopyrazines as ATR kinase inhibitors” (Vertex Pharnaceuticals Incorporated, priority 2011, dated 2014).

Structures are written as SMILES.

The first test deals with T1, full-length ATR (Homo sapiens, UniProt Q13535).
T1 construct: Assays were carried out at 25° C. in the presence of 5 nM full-length ATR
T1 sequence (Q13535 whole entry): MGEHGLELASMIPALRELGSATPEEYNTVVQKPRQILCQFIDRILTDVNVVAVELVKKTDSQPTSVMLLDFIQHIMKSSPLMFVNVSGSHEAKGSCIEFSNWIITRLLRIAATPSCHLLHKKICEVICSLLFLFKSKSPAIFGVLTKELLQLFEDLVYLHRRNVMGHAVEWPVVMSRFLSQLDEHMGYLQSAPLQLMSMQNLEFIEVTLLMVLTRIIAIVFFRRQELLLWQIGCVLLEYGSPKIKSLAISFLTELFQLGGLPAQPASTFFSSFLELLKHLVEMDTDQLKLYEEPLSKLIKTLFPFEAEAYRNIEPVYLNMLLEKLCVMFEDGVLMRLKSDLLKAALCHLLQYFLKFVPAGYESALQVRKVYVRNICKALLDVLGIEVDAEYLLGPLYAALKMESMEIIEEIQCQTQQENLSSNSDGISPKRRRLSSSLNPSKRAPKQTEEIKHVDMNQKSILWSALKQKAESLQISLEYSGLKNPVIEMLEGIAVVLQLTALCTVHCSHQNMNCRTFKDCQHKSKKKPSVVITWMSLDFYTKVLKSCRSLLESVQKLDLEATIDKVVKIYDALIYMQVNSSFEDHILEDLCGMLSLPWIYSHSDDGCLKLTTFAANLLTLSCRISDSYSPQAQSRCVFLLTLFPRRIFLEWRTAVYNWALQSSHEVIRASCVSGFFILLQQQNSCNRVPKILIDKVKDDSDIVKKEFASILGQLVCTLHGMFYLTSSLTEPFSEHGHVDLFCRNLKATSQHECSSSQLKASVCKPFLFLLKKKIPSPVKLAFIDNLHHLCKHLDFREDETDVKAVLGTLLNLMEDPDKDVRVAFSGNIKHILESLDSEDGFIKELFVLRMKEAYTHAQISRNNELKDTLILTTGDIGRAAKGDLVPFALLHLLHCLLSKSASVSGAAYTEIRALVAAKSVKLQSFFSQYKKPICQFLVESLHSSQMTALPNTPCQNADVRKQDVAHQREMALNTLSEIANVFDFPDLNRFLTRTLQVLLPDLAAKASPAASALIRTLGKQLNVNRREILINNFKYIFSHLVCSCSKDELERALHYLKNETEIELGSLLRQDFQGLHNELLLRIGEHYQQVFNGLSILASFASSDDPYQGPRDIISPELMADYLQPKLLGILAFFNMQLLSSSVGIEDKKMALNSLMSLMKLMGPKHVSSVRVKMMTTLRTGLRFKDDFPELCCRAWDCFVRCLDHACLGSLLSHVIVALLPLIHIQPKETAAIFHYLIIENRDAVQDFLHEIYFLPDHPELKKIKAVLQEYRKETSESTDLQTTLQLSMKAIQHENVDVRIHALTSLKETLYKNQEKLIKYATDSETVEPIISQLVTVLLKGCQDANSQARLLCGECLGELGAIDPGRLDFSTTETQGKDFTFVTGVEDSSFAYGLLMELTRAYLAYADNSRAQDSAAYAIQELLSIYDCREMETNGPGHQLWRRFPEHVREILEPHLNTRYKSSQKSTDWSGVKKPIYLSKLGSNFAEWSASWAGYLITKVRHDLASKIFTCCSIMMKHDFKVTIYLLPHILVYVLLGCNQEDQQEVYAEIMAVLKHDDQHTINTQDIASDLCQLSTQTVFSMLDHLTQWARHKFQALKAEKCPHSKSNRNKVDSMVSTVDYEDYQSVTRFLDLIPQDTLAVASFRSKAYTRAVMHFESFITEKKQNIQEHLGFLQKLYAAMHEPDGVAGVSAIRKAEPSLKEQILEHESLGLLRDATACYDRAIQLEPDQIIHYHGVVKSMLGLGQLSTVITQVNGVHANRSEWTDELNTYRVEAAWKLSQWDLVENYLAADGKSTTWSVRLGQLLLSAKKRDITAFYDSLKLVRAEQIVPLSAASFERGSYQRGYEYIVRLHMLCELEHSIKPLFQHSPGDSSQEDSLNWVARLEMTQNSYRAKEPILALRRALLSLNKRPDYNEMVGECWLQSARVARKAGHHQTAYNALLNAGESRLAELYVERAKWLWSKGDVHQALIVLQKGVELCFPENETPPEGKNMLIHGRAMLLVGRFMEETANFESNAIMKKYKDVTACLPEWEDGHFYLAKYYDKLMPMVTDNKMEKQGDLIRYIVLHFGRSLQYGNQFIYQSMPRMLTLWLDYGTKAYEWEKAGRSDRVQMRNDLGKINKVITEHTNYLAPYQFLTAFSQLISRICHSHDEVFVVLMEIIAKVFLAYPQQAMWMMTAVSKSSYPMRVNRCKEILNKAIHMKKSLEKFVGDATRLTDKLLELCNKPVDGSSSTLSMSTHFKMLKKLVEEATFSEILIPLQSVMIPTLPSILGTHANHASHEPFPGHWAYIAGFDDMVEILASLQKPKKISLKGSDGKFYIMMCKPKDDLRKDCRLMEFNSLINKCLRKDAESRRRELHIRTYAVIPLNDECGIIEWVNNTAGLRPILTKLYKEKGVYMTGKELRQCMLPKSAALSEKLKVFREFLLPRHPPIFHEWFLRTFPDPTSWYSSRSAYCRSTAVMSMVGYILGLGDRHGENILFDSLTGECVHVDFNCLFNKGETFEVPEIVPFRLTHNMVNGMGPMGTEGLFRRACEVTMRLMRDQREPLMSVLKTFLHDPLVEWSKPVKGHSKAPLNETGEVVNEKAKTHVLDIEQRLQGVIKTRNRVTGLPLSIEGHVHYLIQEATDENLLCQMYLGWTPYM
As to the kind of experiment: ATR Inhibition Assay (radioactive-phosphate incorporation). It counts as biochemical.
Conditions: not given
Broadly, the Ki is a dissociation constant, usually derived from enzyme kinetics or from competition with a known ligand. Regarding `CNCCNC(=O)C(C)(C)c1cc(-c2cnc(N)c(-c3cc(-c4ccccc4)no3)n2)ccn1` [Compound I-65], the Ki was in the range of 5 to 20 nM.

With `CC(C)(C#N)c1cc(-c2cnc(N)c(-c3nnc(-c4cccc(CCN)c4)o3)n2)ccn1` [Compound I-66], the Ki was below 1 nM. For `COCC(CO)CNCc1ccc(-c2cc(-c3nc(-c4ccnc(C(C)(C)C#N)c4)cnc3N)on2)cc1` (centres unmarked) [Compound I-67], the Ki is below 1 nM. In the case of `CC(C)(C#N)c1cc(-c2cnc(N)c(-c3nnc(-c4ccc(N5CCCC5CN)cc4)o3)n2)ccn1` (centres unmarked) [Compound I-68], the inhibition constant (Ki) is 5 to 20 nM. Still for that read-out and setting: to `CC(C)(C#N)c1cc(-c2cnc(N)c(-c3nnc(-c4ccc(OCCN5CCCC5)cc4)o3)n2)ccn1` [Compound I-69] belongs below 1 nM; to `CC(C)(C#N)c1cc(-c2cnc(N)c(-c3nnc(-c4ccc(F)cc4NCCN)o3)n2)ccn1` [Compound I-70], below 1 nM. Consider `CC(C)(C#N)c1cc(-c2cnc(N)c(-c3nnc(-c4ccc(N5CCNCC5)cc4)o3)n2)ccn1` [Compound I-73], for which the Ki was below 1 nM. Consider `N#CC1(c2cc(-c3cnc(N)c(-c4cc(-c5ccccc5)no4)n3)ccn2)CN2CCC1CC2` (centres unmarked) [Compound I-74], for which the Ki is below 1 nM. For `CC(C)(C#N)c1cc(-c2cnc(N)c(-c3nnc(-c4ccc(NCCN)cc4F)o3)n2)ccn1` [Compound I-75], the Ki is 5 to 20 nM. Turning to `CC(C)(C#N)c1cc(-c2cnc(N)c(-c3nnc(-c4cccc(N5CC[C@@H](N)C5)c4)o3)n2)ccn1` [Compound I-77], the inhibition constant Ki is below 1 nM. Same read-out and setting: for `CNCCN(C)c1ccc(-c2nnc(-c3nc(-c4ccnc(C(C)(C)C#N)c4)cnc3N)o2)cc1` [Compound I-78] the value was below 1 nM; for `CC(C)(C#N)c1cc(-c2cnc(N)c(-c3nnc(-c4ccc(C5CCCN5)cc4)o3)n2)ccn1` (centres unmarked) [Compound I-79], below 1 nM; for `CN(C)CCNC(=O)C(C)(C)c1cc(-c2cnc(N)c(-c3cc(-c4ccccc4)no3)n2)ccn1` [Compound I-85], 5 to 20 nM.

Take `COC[C@@H](N)c1ccc(-c2nnc(-c3nc(-c4ccnc(C(C)(C)C#N)c4)cnc3N)o2)cc1` [Compound I-87]: the Ki was below 1 nM. The same measure, in the same setting: to `CC(C)(C#N)c1cc(-c2cnc(N)c(-c3nnc(-c4ccc(N5CC[C@H](N)C5)cc4)o3)n2)ccn1` [Compound I-88] belongs below 1 nM; to `CC(C)(C#N)c1cc(-c2cnc(N)c(-c3nnc(-c4cccc(C5CCCN5)c4)o3)n2)ccn1` (centres unmarked) [Compound I-89], 5 to 20 nM. In the case of `CC(C)(C#N)c1cc(-c2cnc(N)c(-c3nnc(-c4cccc(N5CC[C@H](N)C5)c4)o3)n2)ccn1` [Compound I-90], the Ki was below 1 nM. As for `CCCN(CCN(C)C)C(=O)c1cc(-c2cnc(N)c(-c3cc(-c4ccccc4)no3)n2)ccn1` [Compound I-91], the Ki lay in the range of 5 to 20 nM. As for `CC(C)(C#N)c1cc(-c2cnc(N)c(-c3cc(-c4ccc(CNC5CCCOC5)cc4)no3)n2)ccn1` (centres unmarked) [Compound I-93], the inhibition constant Ki was below 1 nM.

`N#CC1(c2cc(-c3cnc(N)c(-c4nnc(-c5ccccc5)o4)n3)ccn2)CCNCC1` [Compound I-94]: the Ki lay within 5 to 20 nM. With `CC(C)(C#N)c1cc(-c2cnc(N)c(-c3nnc(-c4cc5c(s4)CCNC5)o3)n2)ccn1` [Compound I-96], the inhibitory constant (Ki) is below 1 nM. As to `CC(C)(C#N)c1cc(-c2cnc(N)c(-c3cc(-c4ccc(CN[C@H]5CCOC5)cc4)no3)n2)ccn1` [Compound I-97], the Ki was below 1 nM.

Regarding `CC(C)(C#N)c1cc(-c2cnc(N)c(-c3nnc(-c4ccc(C5COCCN5)cc4)o3)n2)ccn1` (centres unmarked) [Compound I-99], the inhibition constant Ki fell in the range of 20 to 100 nM.

Consider `CN1CCN(Cc2ccc(-c3nnc(-c4nc(-c5ccnc(C(C)(C)C#N)c5)cnc4N)o3)cc2)CC1` [Compound I-100], for which the Ki fell in the range of 5 to 20 nM. The same measure, in the same setting: to `CC(C)(C#N)c1cc(-c2cnc(N)c(-c3cc(-c4ccc(CNCC5COC5)cc4)no3)n2)ccn1` [Compound I-102] belongs below 1 nM; to `CN(C)CCNc1ccc(-c2nnc(-c3nc(-c4ccnc(C(C)(C)C#N)c4)cnc3N)o2)c(F)c1` [Compound I-103], 20 to 100 nM. Consider `CC(C)(C#N)c1cc(-c2cnc(N)c(-c3nnc(-c4ccc(NCC5CNC5)cc4)o3)n2)ccn1` [Compound I-104], for which the Ki is below 1 nM. In the case of `CC(C)(C#N)c1cc(-c2cnc(N)c(-c3nnc(-c4ccc(CNCC5COC5)cc4)o3)n2)ccn1` [Compound I-105], the Ki is below 1 nM.

With `CC(C)(C#N)c1cc(-c2cnc(N)c(-c3nnc(-c4ccc(NC5CNC5)cc4)o3)n2)ccn1` [Compound I-107], the inhibition constant Ki was below 1 nM.

Regarding `CN(C)CCNc1cc(F)ccc1-c1nnc(-c2nc(-c3ccnc(C(C)(C)C#N)c3)cnc2N)o1` [Compound I-108], the inhibition constant (Ki) was below 1 nM.

In the case of `CC(C)(C#N)c1cc(-c2cnc(N)c(-c3nnc(-c4cccc(N5CC(N)C5)c4)o3)n2)ccn1` [Compound I-110], the Ki is below 1 nM.

For the compound `CC(C)(C#N)c1cc(-c2cnc(N)c(-c3nnc(-c4cc5c(s4)CNCC5)o3)n2)ccn1` [Compound I-111], the inhibition constant (Ki) was below 1 nM.

Turning to `CC(C)(C#N)c1cc(-c2cnc(N)c(-c3nnc(-c4ccc(OCCN)cc4)o3)n2)ccn1` [Compound I-112], the inhibitory constant (Ki) is below 1 nM.

For `CC(C)(C#N)c1cc(-c2cnc(N)c(-c3nnc(-c4ccc(OC5CNC5)cc4)o3)n2)ccn1` [Compound I-113], the Ki was below 1 nM. With `CC(C)(C#N)c1cc(-c2cnc(N)c(-c3nnc(-c4ccc(NCCN5CCOCC5)cc4)o3)n2)ccn1` [Compound I-116], the Ki was below 1 nM. Still for that read-out and setting: to `CNCCNc1ccc(-c2nnc(-c3nc(-c4ccnc(C(C)(C)C#N)c4)cnc3N)o2)cc1` [Compound I-117] belongs below 1 nM; to `CN1CC(Oc2ccc(-c3nnc(-c4nc(-c5ccnc(C(C)(C)C#N)c5)cnc4N)o3)cc2)C1` [Compound I-121], below 1 nM; to `CC(C)(C#N)c1cc(-c2cnc(N)c(-c3nnc(-c4ccc(CNC5CCCOC5)cc4)o3)n2)ccn1` (centres unmarked) [Compound I-122], below 1 nM. In the case of `CC(C)(C#N)c1cc(-c2cnc(N)c(-c3nnc(-c4ccc(N5CC(N)C5)cc4)o3)n2)ccn1` [Compound I-123], the Ki was below 1 nM. Consider `CC(C)(C#N)c1cc(-c2cnc(N)c(-c3nnc(-c4ccc(CNC5CCOCC5)cc4F)o3)n2)ccn1` [Compound I-124], for which the Ki is below 1 nM. `CC(C)(C#N)c1cc(-c2cnc(N)c(-c3nnc(-c4cccc(N5CCC(N)CC5)c4)o3)n2)ccn1` [Compound I-125]: the Ki lay within 5 to 20 nM. In the case of `CC(C)(C#N)c1cc(-c2cnc(N)c(-c3nnc(-c4ccc(CNC5CCOCC5)cc4)o3)n2)ccn1` [Compound I-126], the Ki was below 1 nM. `CC(C)(C#N)c1cc(-c2cnc(N)c(-c3nnc(-c4ccc(C5=CCNCC5)cc4)o3)n2)ccn1` [Compound I-128]: the inhibition constant Ki was below 1 nM.

The same test, now with this note: Ki(app); 5 nM full-length ATR, 10 μM [γ-33P]ATP, 800 μM target peptide, 25° C.
In the case of `CC(C)(C#N)c1cc(-c2cnc(N)c(-c3nnc(-c4ccc(N5CCC[C@H](N)C5)cc4)o3)n2)ccn1` [Compound I-64], the “ATR Ki” value was “+++ (Compounds with a Ki value >5 nM but ≦1 nM are marked with “+++.”)”. The same measure, in the same setting: for `CC(C)(C#N)c1cc(-c2cnc(N)c(-c3cc(-c4ccc([C@H]5COCCN5)cc4)no3)n2)ccn1` [Compound I-71] the value was “+++ (Compounds with a Ki value >5 nM but ≦1 nM are marked with “+++.”)”; for `CN(CCN)c1ccc(-c2nnc(-c3nc(-c4ccnc(C(C)(C)C#N)c4)cnc3N)o2)cc1` [Compound I-72], “+++ (Compounds with a Ki value >5 nM but ≦1 nM are marked with “+++.”)”. For the compound `CC(C)(C#N)c1cc(-c2cnc(N)c(-c3nnc(-c4ccc(N5CCC(N)CC5)cc4)o3)n2)ccn1` [Compound I-76], the “ATR Ki” value is reported as “+++ (Compounds with a Ki value >5 nM but ≦1 nM are marked with “+++.”)”. The same measure, in the same setting: to `CC(C)(C#N)c1cc(-c2cnc(N)c(-c3nnc(-c4ccc(C5CNC5)cc4)o3)n2)ccn1` [Compound I-80] belongs “+++ (Compounds with a Ki value >5 nM but ≦1 nM are marked with “+++.”)”. Regarding `CC(C)(C#N)c1cc(-c2cnc(N)c(-c3nnc(-c4ccc5c(c4)CNC5)o3)n2)ccn1` [Compound I-81], the “ATR Ki” value was “+++ (Compounds with a Ki value >5 nM but ≦1 nM are marked with “+++.”)”. `CC(C)(C#N)c1cc(-c2cnc(N)c(-c3nnc(-c4ccc(C5CNCCN5)cc4)o3)n2)ccn1` (centres unmarked) [Compound I-82]: the “ATR Ki” value was “+++ (Compounds with a Ki value >5 nM but ≦1 nM are marked with “+++.”)”. On to `CC(C)(C#N)c1cc(-c2cnc(N)c(-c3nnc(-c4cccc(NC5CNC5)c4)o3)n2)ccn1` [Compound I-84], for which the “ATR Ki” value is on record as “+++ (Compounds with a Ki value >5 nM but ≦1 nM are marked with “+++.”)”. Same read-out and setting: for `CN1CCN(c2ccc(-c3nnc(-c4nc(-c5ccnc(C(C)(C)C#N)c5)cnc4N)o3)cc2)CC1` [Compound I-86] the value was “+++ (Compounds with a Ki value >5 nM but ≦1 nM are marked with “+++.”)”; for `CC(C)(C#N)c1cc(-c2cnc(N)c(-c3nnc(-c4cccc(C5CNC5)c4)o3)n2)ccn1` [Compound I-95], “+++ (Compounds with a Ki value >5 nM but ≦1 nM are marked with “+++.”)”; for `N#CC1(c2cc(-c3cnc(N)c(-c4nnc(-c5cccs5)o4)n3)ccn2)CCNCC1` [Compound I-101], “+++ (Compounds with a Ki value >5 nM but ≦1 nM are marked with “+++.”)”.

Turning to `CC(C)(C#N)c1cc(-c2cnc(N)c(-c3nnc(-c4ccc(O[C@H]5CCNC5)cc4)o3)n2)ccn1` [Compound I-106], the “ATR Ki” value was “+++ (Compounds with a Ki value >5 nM but ≦1 nM are marked with “+++.”)”.

Take `CC(C)(C#N)c1cc(-c2cnc(N)c(-c3nnc(-c4ccc(C5CCNCC5)cc4)o3)n2)ccn1` [Compound I-109]: the “ATR Ki” value is on record as “+++ (Compounds with a Ki value >5 nM but ≦1 nM are marked with “+++.”)”. `CN(C)CCNc1ccc(-c2nnc(-c3nc(-c4ccnc(C(C)(C)C#N)c4)cnc3N)o2)cc1` [Compound I-114]: the “ATR Ki” value is “+++ (Compounds with a Ki value >5 nM but ≦1 nM are marked with “+++.”)”. In the case of `CCOC(=O)C(C)(C)c1cc(-c2cnc(N)c(-c3cc(-c4ccccc4)no3)n2)ccn1` [Compound I-115], the “ATR Ki” value is on record as “+++ (Compounds with a Ki value >5 nM but ≦1 nM are marked with “+++.”)”. In the case of `CC(C)(C#N)c1cc(-c2cnc(N)c(-c3nnc(-c4ccc(N5CCC5)cc4)o3)n2)ccn1` [Compound I-118], the “ATR Ki” value was “+++ (Compounds with a Ki value >5 nM but ≦1 nM are marked with “+++.”)”.
